Measured values taken from patent US4160829A, “Antibacterial 1,2,4-oxadiazolylacetamido cephalosporins” (Gist-Brocades N.V., priority 1972, dated 1979).
Converted amounts (≈) assume the structure as drawn.

Assays:
[1] = test system: Prot.mirab. L 93; test: micro serial dilution test; assay type: cell-based; conditions: Proteus mirabilis; micro serial dilution (in brackets), about 18 hours, 30° C. or 37° C.; read-out: minimal inhibitory concentration (MIC)
[2] = test system: Haem.infl. A 1030; test: micro serial dilution test; assay type: cell-based; conditions: 18 h, micro serial dilution (in brackets), about 18 hours, 30° C. or 37° C.; read-out: minimal inhibitory concentration (MIC)
[3] = test system: Shig.equir. T 3; test: micro serial dilution test; assay type: cell-based; conditions: micro serial dilution (in brackets), about 18 hours, 30° C. or 37° C.; read-out: minimal inhibitory concentration (MIC)
From the text: Two drops of a stock solution of the test compound (antibiotic) in a known concentration were brought into the first hole of a test plate with 9 numbered holes with a sterile Pasteur pipette. After rinsing this pipette three times with a physiological NaCl-solution, two drops of a stock solution of the test organism in a culture medium were brought in all the holes except for hole 8. In the first hole, the solution of the tested compound had been half diluted, then by stirring the liquid in the first hole and adding two drops of this mixture to the second hole and so on until hole 8, dilutions of the test compound solution were obtained in geometrical progression. The hole 9 contained no antibiotic and served for checking the growth of the testogranism in a blank medium. The test plate was incubated at 30° C. or 37° C. for about 18 hours.

[4] = test system: Prot.mirab. H 3; test: micro serial dilution test; assay type: cell-based; conditions: Proteus mirabilis; micro serial dilution (in brackets), about 18 hours, 30° C. or 37° C.; read-out: minimal inhibitory concentration (MIC)
[5] = test system: Esch.coli U 20; test: micro serial dilution test; assay type: cell-based; conditions: Escherichia coli, U20; micro serial dilution (in brackets), about 18 hours, 30° C. or 37° C.; read-out: minimal inhibitory concentration (MIC)
[6] = test system: Staph.aureus A 355; test: micro serial dilution test; assay type: cell-based, Staphylococcus aureus; conditions: Staphylococcus aureus, A355; micro serial dilution (in brackets), about 18 hours, 30° C. or 37° C.; penicillinase-producing strain; read-out: minimal inhibitory concentration (MIC)
[7] = test system: Bac.Subt.ATCC 6633; test: micro serial dilution test; assay type: cell-based; conditions: Bacillus subtilis, ATCC6633; micro serial dilution (in brackets), about 18 hours, 30° C. or 37° C.; read-out: minimal inhibitory concentration (MIC)
[8] = test system: Salm.dubl. P 43; test: micro serial dilution test; assay type: cell-based, Salmonella dublin; conditions: Salmonella enterica; micro serial dilution (in brackets), about 18 hours, 30° C. or 37° C.; read-out: minimal inhibitory concentration (MIC)
[9] = test system: Kleb.pneum. A 809; test: micro serial dilution test; assay type: cell-based; conditions: Klebsiella pneumoniae; micro serial dilution (in brackets), about 18 hours, 30° C. or 37° C.; read-out: minimal inhibitory concentration (MIC)
[10] = test system: Pseud.aerug. H 10; test: micro serial dilution test; assay type: cell-based; conditions: micro serial dilution (in brackets), about 18 hours, 30° C. or 37° C.; read-out: minimal inhibitory concentration (MIC)
[11] = test system: Pseud.aerug. Wyeth A 1058; test: micro serial dilution test; assay type: cell-based; conditions: micro serial dilution (in brackets), about 18 hours, 30° C. or 37° C.; read-out: minimal inhibitory concentration (MIC)
[12] = test system: Staph.aureus A 321; test: micro serial dilution test; assay type: cell-based; conditions: Staphylococcus aureus, A321; micro serial dilution (in brackets), about 18 hours, 30° C. or 37° C.; read-out: minimal inhibitory concentration (MIC)
[13] = test system: Dipl.pneum. L 54; test: micro serial dilution test; assay type: cell-based, Diplococcus pneumoniae; conditions: Streptococcus pneumoniae; micro serial dilution (in brackets), about 18 hours, 30° C. or 37° C.; read-out: minimal inhibitory concentration (MIC)
[14] = test system: Prot.morg. 2241; test: micro serial dilution test; assay type: cell-based; conditions: micro serial dilution (in brackets), about 18 hours, 30° C. or 37° C.; read-out: minimal inhibitory concentration (MIC)
[15] = test system: Past.multo. A 723; test: micro serial dilution test; assay type: cell-based; conditions: Pasteurella multocida; micro serial dilution (in brackets), about 18 hours, 30° C. or 37° C.; read-out: minimal inhibitory concentration (MIC)
[16] = test system: Strep.haem. A 266; test: micro serial dilution test; assay type: cell-based, Streptococcus haemolyticus; conditions: Streptococcus; micro serial dilution (in brackets), about 18 hours, 30° C. or 37° C.; read-out: minimal inhibitory concentration (MIC)
[17] = test system: Prot.rettg. A 821; test: micro serial dilution test; assay type: cell-based, Proteus rettgeri; conditions: Providencia rettgeri; micro serial dilution (in brackets), about 18 hours, 30° C. or 37° C.; read-out: minimal inhibitory concentration (MIC)
[18] = test system: Bruc.melit. A 488; test: microbe, parasite or virus in culture; assay type: cell-based; conditions: Brucella melitensis, 18 h, read-out: minimal inhibitory concentration (MIC)
[19] = test system: Pseud.aerug. 2396; test: micro serial dilution test; assay type: cell-based; conditions: micro serial dilution (in brackets), about 18 hours, 30° C. or 37° C.; read-out: minimal inhibitory concentration (MIC)
[20] = test system: Strep. faec. L 80; test: micro serial dilution test; assay type: cell-based, Streptococcus faecalis; conditions: Enterococcus faecalis; micro serial dilution (in brackets), about 18 hours, 30° C. or 37° C.; read-out: minimal inhibitory concentration (MIC)

In the case of `CC1(C)S[C@@H]2[C@H](NC(=O)Cc3ccccc3)C(=O)N2[C@H]1C(=O)O` [Penicillin G], the MIC [1] is reported as 0.5 µg/mL (≈ 1.5 µM), the MIC [2] is reported as 0.5 µg/mL (≈ 1.5 µM) and the MIC [3] is reported as 0.25 µg/mL (≈ 0.748 µM). For the same compound, the MIC [4] was 7.5 µg/mL (≈ 22.4 µM), the MIC [5] was 40 µg/mL (≈ 120 µM) and the MIC [6] was 10 µg/mL (≈ 29.9 µM). For the same compound, the MIC [7] was 6 ng/mL (≈ 0.0179 µM), the MIC [8] was 5 µg/mL (≈ 15 µM) and the MIC [9] was 100 µg/mL (≈ 299 µM). For the same compound, the MIC [10] was greater than 100 µg/mL, the MIC [11] was 100 µg/mL (≈ 299 µM) and the MIC [12] was 0.03 µg/mL (≈ 0.0897 µM). It also gave an MIC [13] of 0.13 µg/mL (≈ 0.389 µM), an MIC [14] greater than 100 µg/mL and an MIC [15] of 0.2 µg/mL (≈ 0.598 µM). The MIC [16] was 0.013 µg/mL (≈ 0.0389 µM), the MIC [17] was 25 µg/mL (≈ 74.8 µM) and the MIC [18] was 0.25 µg/mL (≈ 0.748 µM). It also gave an MIC [19] greater than 100 µg/mL and an MIC [20] of 4 µg/mL (≈ 12 µM).
